Test results taken from US20060194821A1, “Compounds inhibiting the aggregation of superoxide dismutase-1” (The Brigham and women's Hospital, Inc., priority 2005, published 2006).
Entries after “also recorded” stand apart in the source; their conditions may differ.

What was measured:
Type in all cases: biochemical
G85R = target: T1, G85R (Homo sapiens, UniProt P00441, G86R); test: EDTA-induced aggregation of G85R
T1 construct: made in house
Description: (§1) Aggregation assays for screening were prepared by adding a stock solution of compound to a protein solution (final concentrations: 100 μM compound, 50 μM protein). Following a 15 minute preincubation period at 37° C., 5 mM EDTA was added to initiate aggregation. Aliquots were periodically removed and analyzed for the amount of SOD-1 dimer present. This value correlated in all cases with the appearance of oligomers by gel filtration on a Superdex 200™ (3.2/30) gel filtration column (Pharmacia). All chromatography was performed in TBS, pH 7.4 (20 mM Tris, 150 mM NaCl) on a Waters 2690 Alliance HPLC and monitored at 220 and 276 nm. […] Assays in the absence of EDTA were carried as described previously (16). For Apo-A4V experiments, buffers were treated with CHELEX (except those containing EDTA) and experiments were performed in plastic tubes to avoid introduction of contaminating zinc into the Apo-protein.

A4V/V7F/V148F = target: T2, A4V/V7F/V148F (Homo sapiens, UniProt P00441, A5V/V149F/V8F); test: Aggregation of A4V/V7F/V148F (putative binding site disturbed); conditions: binding site disturbed by V7F/V148F
T2 construct: made in house; host or cells: E. coli
Description: as §1
To investigate the effect of partially capping the cavity with hydrophobic moieties, residues V148 and V7, the sidechains of which protruded into the cavity, were mutated to phenylalanine. […] Filling cavities in protein structures with hydrophobic side chains often stabilizes the protein structure (30, 31), lysozyme being a classic example (32).
Three variants of SOD-1, in which the V7F and V148F mutations were introduced into WT, A4V and G93A, were cloned, expressed in E. coli and purified as described previously (15). Each protein was subjected to guanidine chloride (GdnCl) unfolding and fluorescence intensity (348 nm) was monitored at 25° C. WT enzyme was completely unfolded at 3.5 M GdnCl (Cm=3.2 M, where Cm is the midpoint of transition), while A4V was completely unfolded at 1.9 M GdnCl (Cm=1.51 M). […] G93A/V7F/V148F was slightly more resistant to denaturation than G93A. No significant effect of the two V→F mutations on the denaturation of WT (i.e., WT vs. V7F/V148F) could be measured. The V→F mutations stabilized both A4V and G93A against EDTA induced aggregation. […] Similarly, G93A/V7F/V148F aggregated slightly more slowly than G93A.

G93A = target: T3, G93A (Homo sapiens, UniProt P00441, G94A); test: EDTA-induced aggregation of G93A
T3 construct: made in house
Description: as §1

[1] = target: T4, A4V, a FALS-linked variant of SOD-1 (Homo sapiens, UniProt P00441, A5V); test: A4V aggregation assay with EDTA (SOD-1 dimer loss by gel filtration); conditions: 100 μM compound, 50 μM protein
T4 construct: made in house
Description: SOD-1 dimer was purified on a Superdex 75™ (16/60) gel filtration column (Pharmacia) to produce starting material for each aggregation experiment. Metal analyses were carried by inductive coupled plasma mass-spectrometry (ICP-MS). WT and G93A were nearly fully metallated, and G85R and A4V were deficient in zinc and copper, respectively.
as §1

A4V = target: T5, A4V (Homo sapiens, UniProt P00441, A5V); test: Guanidinium chloride unfolding of A4V (fluorescence); conditions: 5 μM protein, fluorescence 348 nm
T5 construct: made in house
Description: Equilibrium unfolding transition, as a function of GdnCl concentration, was monitored by fluorescence spectroscopy. The fluorescence measurements were done on a Hitachi f-4500 spectrofluorometer in a 1-cm cell connected to a circulation water bath. The excitation and emission wavelengths were fixed at 278 and 348 nm, respectively, after making appropriate corrections for buffer and GdnCl. The slit width was 5 nm for both monochromators. Each measurement was an average of five readings. Protein concentration used for fluorescence experiments was 5 μM. The data were analyzed directly for a two-state (N→U) transition as follows: the raw data for the GdnCl-induced denaturation studies were converted to fractions of the protein in the unfolded state (fu) as a function of GdnCl concentration using the equation: fu=Y0−(Yf+mf[GdnCl.])/(Yu+mu[GdnCl.])−(Yf+mf[GdnCl.]) where Y0 is the observed spectroscopic property, Yf and mf are the […] of the folded state baseline and Yu and mu represent the respective values of the unfolded baseline. The folded fraction was calculated as (fn=1−fu) and the equilibrium constant was determined by Keq=fu/fn. The free energy of unfolding was determined using the equation ΔG=−RT ln(Keq) where T is the temperature in Kelvin and R is the universal gas constant (1.987 cal mol−1 K−1).

SOD = test: Testing of structural analogs for inhibition of SOD aggregation; conditions: Example 2, compounds of FIG. 2
Description: as §1
A structural analysis was performed on the 15 compounds found to be active in the assays described in Example 1 (see FIG. 1). […] Although most of the compounds tested were purchased commercially, two (1,2-di-[6-Mercapto-2H-[1,2,4]triazine-3,5-dione]ethane; and di-{5-[1H-pyrimidine-2,4-dione]methyl}thioether) were synthesized as described in Example 3.

T1 sequence (P00441 2-154 G86R limits assumed): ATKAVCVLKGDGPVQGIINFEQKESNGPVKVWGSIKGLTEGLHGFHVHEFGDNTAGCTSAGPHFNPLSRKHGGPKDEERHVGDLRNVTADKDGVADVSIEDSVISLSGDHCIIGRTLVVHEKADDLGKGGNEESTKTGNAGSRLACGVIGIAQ
T5 sequence (P00441 2-154 A5V limits assumed): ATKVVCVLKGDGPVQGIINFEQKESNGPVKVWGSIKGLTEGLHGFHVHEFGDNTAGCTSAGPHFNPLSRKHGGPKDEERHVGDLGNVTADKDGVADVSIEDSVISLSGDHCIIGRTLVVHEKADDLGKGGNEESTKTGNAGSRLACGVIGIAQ
T4 sequence (P00441 2-154 A5V limits assumed): as above
T2 sequence (P00441 2-154 A5V/V8F/V149F limits assumed): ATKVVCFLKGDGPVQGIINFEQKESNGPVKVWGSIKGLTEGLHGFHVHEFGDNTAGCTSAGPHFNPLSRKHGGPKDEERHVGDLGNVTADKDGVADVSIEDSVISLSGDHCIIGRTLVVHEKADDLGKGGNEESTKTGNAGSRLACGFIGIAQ
T3 sequence (P00441 2-154 G94A limits assumed): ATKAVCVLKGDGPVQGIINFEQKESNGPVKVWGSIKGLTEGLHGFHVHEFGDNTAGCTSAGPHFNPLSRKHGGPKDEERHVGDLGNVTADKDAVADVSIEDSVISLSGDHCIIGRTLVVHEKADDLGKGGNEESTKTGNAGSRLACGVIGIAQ

| inhibition of G85R aggregation (G85R) | change in the aggregation rate of A4V/V7F/V148F (A4V/V7F/V148F) | inhibition of G93A aggregation (G93A) | stabilization of A4V against GdnCl induced unfolding (expressed as ΔG) (A4V) | SMILES | inhibition of A4V aggregation (in words) [1] | inhibition of SOD aggregation by structural analogs (SOD) |
| --- | --- | --- | --- | --- | --- | --- |
| among the best inhibitors | no appreciable change | among the best inhibitors | stabilized A4V nearly to WT levels | O=c1[nH]nc(SCc2ccc(F)cc2)c(=O)[nH]1 [Compound 7, 6-[(4-fluorobenzyl)thio]-1,2,4-triazine-3,5(2H,4H)-dione] | most potent A4V aggregation inhibitors; also recorded: among the most potent aggregation inhibitors |  |
|  |  |  |  | O=c1[nH]cc(CSc2n[nH]c(=O)[nH]c2=O)c(=O)[nH]1 [6-{[(2,4-dioxo-1,2,3,4-tetrahydropyrimidin-5-yl)methyl]thio}-1,2,4-triazine-3,5(2H,4H)-dione] |  | most active |
| among the best inhibitors | no appreciable change | among the best inhibitors | stabilized A4V nearly to WT levels | Oc1ccc(Br)cc1/C=N/c1ccc(F)cc1 [Compound 4, 4-bromo-2-{(E)-[(4-fluorophenyl)imino]methyl}phenol] | most potent A4V aggregation inhibitors; also recorded: among the most potent aggregation inhibitors |  |
| among the best inhibitors | no appreciable change | among the best inhibitors | stabilized A4V nearly to WT levels | O=c1[nH]nc(SCc2ccc(Cl)cc2)c(=O)[nH]1 [Compound 3, 6-[(4-chlorobenzyl)thio]1,2,4-triazine-3,5(2H,4H)-dione] | most potent A4V aggregation inhibitors; also recorded: among the most potent aggregation inhibitors |  |
|  |  |  |  | O=c1[nH]cc(CSCc2c[nH]c(=O)[nH]c2=O)c(=O)[nH]1 [di-{5-[1H-pyrimidine-2,4-dione]methyl}thioether] |  | most active |
|  |  |  |  | O=c1[nH]c(=O)n(CCn2nc(S)c(=O)[nH]c2=O)nc1S [1,2-di-[6-Mercapto-2H-[1,2,4]triazine-3,5-dione]ethane] |  | most active |

| SMILES | inhibition of G85R aggregation (G85R) | change in the aggregation rate of A4V/V7F/V148F (A4V/V7F/V148F) | inhibition of G93A aggregation (G93A) | stabilization of A4V against GdnCl induced unfolding (expressed as ΔG) (A4V) | inhibition of A4V aggregation (in words) [1] | inhibition of SOD aggregation by structural analogs (SOD) |
| --- | --- | --- | --- | --- | --- | --- |
| O=c1cc(Nc2ccc(Cl)cc2)[nH]c(=O)[nH]1 [Compound 2, 6-[(4-chlorophenyl)amino]pyrimidine-2,4(1H,4H)-dione] | among the best inhibitors | no appreciable change | among the best inhibitors | stabilized A4V nearly to WT levels; also recorded: stabilizes the A4V dimer to an extent comparable to the difference in stability between the invariably lethal A4V and WT SOD-1 | most potent A4V aggregation inhibitors; also recorded: among the most potent aggregation inhibitors |  |
